Reference: patent US20170209514A1, “Method For Promoting Bone Length Growth” (Novatec Co., Ltd., priority 2013, published 2017)

How the values were obtained:
Format in all cases: in vivo, Sprague-Dawley rats
osteocalcin = test: Osteoblast-activating factor osteocalcin in the serum (ELISA); details: rats, after 10-day administration, in comparison with the Control group, FIG. 10
Protocol: (§1) 3 weeks-old, male Sprague-Dawley rats were obtained and stabilized for 3 days. The feeding conditions included the temperature of 24±2° C., the light-dark cycle of 12 hours, and common solid feed without the inclusion of antibiotics. While the Control group was treated with saline solution, the bamboo (Bambusae caulis in Taeniam) extract, which was prepared in the powder form as described in the above example 1 and added with water, was orally administered once daily. The Positive Control group was treated subcutaneously with the injection of Eutropin (LG Life Sciences, South Korea) at 20 μg/kg once daily.
(§2) The administered substances and dosages in each group are as follows: • Control Group: normal saline solution 1 ml • Positive Control Group: growth hormone 20 μg/kg • Bamboo (Bambusae caulis in Taeniam)-treated Group: 200 mg/kg
(§3) After 10 days of feeding and administration of the above-mentioned substances, the rats were sacrificed with autopsy performed to find the following results.
After the completion of the administration, blood was collected from the hearts of the experimental rats and coagulated. Serum was then separated so as to obtain samples. Subsequently, the total level of osteocalcin in the serum was measured by using Rat Ostecalcin/Bone Gla Protein. OT/BGP ELISA Kit (Cusabio, product no.: CSB-E05129r).

growth plate = test: Changes in cartilaginous tissues within the growth plate (H&E staining); details: rats, after 10-day administration, FIGS. 5A-7
Protocol: as §1, §2, §3
In order to measure the length of the growth plate zone, the cartilaginous tissues were fixated after autopsy, followed by H&E staining and microscope examination. The length of the growth plate zone was measured five(5) times for each sample. The resulting mean values as obtained were used as a representative value for evaluating their significance.

tibia = test: Measurement of changes in tibia length by X-ray; details: rats, after 10-day administration, vs Control group, FIGS. 3A-3C & 4
Protocol: as §1, §2, §3
After 10-day administration as described in Experiment <1-1>, both right and left tibias of the rats in the experimental group (i.e. Bamboo (Bambusae caulis in Taeniam) extract-treated group) and the control groups were collected, followed by the removal of the muscles, fats and ligaments attached to the bone tissues. […] Tibia length was measured by X-ray radiographs on the tibias.

[1] = Change in body weight of experimental animals; details: rats, observation of 10 days, FIG. 1 (bamboo extract 200 mg/kg oral; GH 20 μg/kg s.c.)
Protocol: as §1
Regarding the administration method of the bamboo (Bambusae caulis in Taeniam) extract according to the present invention, rats in all the groups except for the Positive Control group were administered into their oral cavities, while all the rats were administered once daily.
The administered substances and dosages in each group are as follows: • Control Group: normal saline solution 1 ml • Positive Control Group: growth hormone 20 μg/kg • Bamboo (Bambusae caulis in Taeniam)-treated Group: 200 mg/kg […]
Rats of each group in Experiment <1-1> were tested for their body weight at pre- and post-feeding of 10 days. […] The measured values were statistically analyzed for mean value and standard deviation.

Q: With “GH: Growth hormone positive control, Eutropin (LG Life Sciences, South Korea), injected subcutaneously at 20 μg/kg once daily” as the substance, how does the “Level of osteocalcin in the serum” value (osteocalcin) read?
A: Its value is “significantly increased”.

Q: And the “Length of the hypertrophic zone within the growth plate” value (growth plate)?
A: Its value is “increased greater than that of the Control group”.

Q: And the “Length of the proliferative zone within the growth plate” value (growth plate)?
A: Its value is “increased greater than that of the Control group”.

Q: And the Total tibia length (tibia)?
A: Its Total tibia length is “increased greater than that of the Control group”.

Q: What about the Weight change [1] of the same substance?
A: Its Weight change is “no significant difference in weight change”.
